# Calls of active or inactive are those of the source. The rule behind the calls is not given here.
# Legend:
# Cannabinoid receptor 2 [1] = target: T1, Cannabinoid receptor 2 (Homo sapiens, UniProt P34972); assay: Agonist activity at human recombinant CB2 receptor expressed in Saccharomyces cerevisiae cells; assay type: functional, cell-based
# Cannabinoid receptor 2 [2] = target: T1, Cannabinoid receptor 2; assay: Efficacy at human recombinant CB2 receptor expressed in Saccharomyces cerevisiae cells relative to HU210; assay type: cell-based
# Cytochrome P450 1A2 = target: T2, Cytochrome P450 1A2 (Homo sapiens, UniProt P05177); assay: Inhibition of human CYP1A2; assay type: ADME
# T2 sequence (P05177 whole entry): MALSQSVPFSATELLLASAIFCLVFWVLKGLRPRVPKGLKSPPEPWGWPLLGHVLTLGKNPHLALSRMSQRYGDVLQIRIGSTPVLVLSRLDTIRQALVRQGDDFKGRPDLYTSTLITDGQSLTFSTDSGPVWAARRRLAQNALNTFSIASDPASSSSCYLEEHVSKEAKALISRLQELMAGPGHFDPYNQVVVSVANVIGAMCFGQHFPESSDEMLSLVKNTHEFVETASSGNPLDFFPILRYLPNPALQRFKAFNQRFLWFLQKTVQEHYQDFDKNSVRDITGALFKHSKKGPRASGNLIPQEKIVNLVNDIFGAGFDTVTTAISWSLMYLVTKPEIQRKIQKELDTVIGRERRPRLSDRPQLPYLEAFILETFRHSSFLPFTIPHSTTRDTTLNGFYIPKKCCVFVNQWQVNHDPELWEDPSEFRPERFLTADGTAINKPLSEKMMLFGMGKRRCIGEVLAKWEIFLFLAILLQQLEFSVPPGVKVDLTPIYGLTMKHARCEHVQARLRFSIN
# Cytochrome P450 2C19 = Cytochrome P450 2C19 (Homo sapiens, UniProt P33261); assay: Inhibition of human CYP2C19; assay type: ADME
# Sequence of Cytochrome P450 2C19 (P33261 whole entry): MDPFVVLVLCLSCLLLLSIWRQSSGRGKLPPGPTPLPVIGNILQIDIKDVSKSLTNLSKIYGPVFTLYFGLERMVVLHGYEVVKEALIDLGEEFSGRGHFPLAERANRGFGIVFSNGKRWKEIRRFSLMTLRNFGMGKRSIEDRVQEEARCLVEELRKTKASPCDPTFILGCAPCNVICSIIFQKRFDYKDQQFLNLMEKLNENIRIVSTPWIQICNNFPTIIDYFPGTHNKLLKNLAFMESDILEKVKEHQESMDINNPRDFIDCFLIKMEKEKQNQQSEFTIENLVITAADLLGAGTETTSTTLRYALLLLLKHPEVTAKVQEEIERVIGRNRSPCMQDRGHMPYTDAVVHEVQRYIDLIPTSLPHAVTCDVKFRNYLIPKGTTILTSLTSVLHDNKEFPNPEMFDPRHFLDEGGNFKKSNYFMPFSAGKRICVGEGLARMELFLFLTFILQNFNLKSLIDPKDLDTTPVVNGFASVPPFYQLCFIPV
# Cytochrome P450 2C9 = Cytochrome P450 2C9 (Homo sapiens, UniProt P11712); assay: Inhibition of human CYP2C9; assay type: ADME
# Sequence of Cytochrome P450 2C9 (P11712 whole entry): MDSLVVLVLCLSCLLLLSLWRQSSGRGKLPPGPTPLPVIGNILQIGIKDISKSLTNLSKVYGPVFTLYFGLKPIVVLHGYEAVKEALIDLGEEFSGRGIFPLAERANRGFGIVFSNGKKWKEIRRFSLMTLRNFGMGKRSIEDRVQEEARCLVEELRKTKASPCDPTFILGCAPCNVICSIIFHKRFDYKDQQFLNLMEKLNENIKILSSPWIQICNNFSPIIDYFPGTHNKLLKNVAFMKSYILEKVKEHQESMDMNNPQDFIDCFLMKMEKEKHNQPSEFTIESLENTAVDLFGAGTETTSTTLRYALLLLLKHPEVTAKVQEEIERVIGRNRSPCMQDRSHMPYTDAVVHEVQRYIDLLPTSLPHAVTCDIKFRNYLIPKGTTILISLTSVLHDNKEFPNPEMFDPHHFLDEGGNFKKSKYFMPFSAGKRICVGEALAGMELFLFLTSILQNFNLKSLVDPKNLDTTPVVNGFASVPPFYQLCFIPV
# Cytochrome P450 2D6 = Cytochrome P450 2D6 (Homo sapiens, UniProt P10635); assay: Inhibition of human CYP2D6; assay type: ADME
# Sequence of Cytochrome P450 2D6 (P10635 whole entry): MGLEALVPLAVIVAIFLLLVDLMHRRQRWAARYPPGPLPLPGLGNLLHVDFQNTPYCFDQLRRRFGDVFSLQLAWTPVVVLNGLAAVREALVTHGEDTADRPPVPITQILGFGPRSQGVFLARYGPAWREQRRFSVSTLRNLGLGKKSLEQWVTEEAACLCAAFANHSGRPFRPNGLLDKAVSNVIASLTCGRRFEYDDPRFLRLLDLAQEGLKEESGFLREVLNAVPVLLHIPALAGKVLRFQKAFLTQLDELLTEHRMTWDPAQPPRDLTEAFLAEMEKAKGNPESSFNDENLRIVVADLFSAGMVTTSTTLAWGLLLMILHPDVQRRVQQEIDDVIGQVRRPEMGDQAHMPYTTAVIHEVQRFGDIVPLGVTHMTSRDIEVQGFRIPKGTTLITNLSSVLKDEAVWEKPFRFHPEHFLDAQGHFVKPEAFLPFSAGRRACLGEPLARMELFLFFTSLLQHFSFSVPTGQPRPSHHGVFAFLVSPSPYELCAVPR
# Cytochrome P450 3A4 = Cytochrome P450 3A4 (Homo sapiens, UniProt P08684); assay: Inhibition of human CYP3A4
# Sequence of Cytochrome P450 3A4 (P08684 whole entry): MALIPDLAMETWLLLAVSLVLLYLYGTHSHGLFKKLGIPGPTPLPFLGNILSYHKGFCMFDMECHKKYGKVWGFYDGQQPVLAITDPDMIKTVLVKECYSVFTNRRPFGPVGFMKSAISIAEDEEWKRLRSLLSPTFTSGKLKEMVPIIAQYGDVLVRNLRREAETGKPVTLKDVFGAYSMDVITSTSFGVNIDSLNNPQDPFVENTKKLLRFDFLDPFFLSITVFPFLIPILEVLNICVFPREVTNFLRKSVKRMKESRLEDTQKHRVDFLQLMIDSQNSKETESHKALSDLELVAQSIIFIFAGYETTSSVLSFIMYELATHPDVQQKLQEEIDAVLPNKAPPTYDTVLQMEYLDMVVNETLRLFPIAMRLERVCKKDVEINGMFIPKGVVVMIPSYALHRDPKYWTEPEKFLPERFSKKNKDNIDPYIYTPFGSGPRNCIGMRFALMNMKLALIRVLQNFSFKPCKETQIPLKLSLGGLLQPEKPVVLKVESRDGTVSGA
# [3] = target: Cannabinoid receptor 1 (Homo sapiens) (UniProt P21554); assay: Agonist activity at recombinant human CB1 receptor expressed in Saccharomyces cerevisiae cells at 2 uM; assay type: functional, cell-based
# Sequence of Cannabinoid receptor 1 (Homo sapiens) (P21554 whole entry): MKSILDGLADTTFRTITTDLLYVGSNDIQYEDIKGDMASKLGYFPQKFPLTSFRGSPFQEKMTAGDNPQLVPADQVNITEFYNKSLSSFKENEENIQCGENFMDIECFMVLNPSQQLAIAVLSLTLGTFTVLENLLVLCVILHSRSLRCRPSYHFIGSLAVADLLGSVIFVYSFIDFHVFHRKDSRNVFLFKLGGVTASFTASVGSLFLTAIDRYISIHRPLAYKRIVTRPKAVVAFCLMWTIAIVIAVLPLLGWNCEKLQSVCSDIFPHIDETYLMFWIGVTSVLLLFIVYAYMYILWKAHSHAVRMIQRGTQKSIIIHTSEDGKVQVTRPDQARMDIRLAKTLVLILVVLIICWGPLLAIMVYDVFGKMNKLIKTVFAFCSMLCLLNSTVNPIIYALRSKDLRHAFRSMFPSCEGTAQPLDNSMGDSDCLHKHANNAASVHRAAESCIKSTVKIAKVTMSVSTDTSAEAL
# Liver microsomes = assay: Intrinsic clearance in rat liver microsome; assay type: ADME
# Cannabinoid receptor 2 [4] = target: T3, Cannabinoid receptor 2 (Rattus norvegicus, UniProt Q9QZN9); assay: (§1) Agonist activity at rat CB2 receptor; assay type: functional
# T3 sequence (Q9QZN9 whole entry): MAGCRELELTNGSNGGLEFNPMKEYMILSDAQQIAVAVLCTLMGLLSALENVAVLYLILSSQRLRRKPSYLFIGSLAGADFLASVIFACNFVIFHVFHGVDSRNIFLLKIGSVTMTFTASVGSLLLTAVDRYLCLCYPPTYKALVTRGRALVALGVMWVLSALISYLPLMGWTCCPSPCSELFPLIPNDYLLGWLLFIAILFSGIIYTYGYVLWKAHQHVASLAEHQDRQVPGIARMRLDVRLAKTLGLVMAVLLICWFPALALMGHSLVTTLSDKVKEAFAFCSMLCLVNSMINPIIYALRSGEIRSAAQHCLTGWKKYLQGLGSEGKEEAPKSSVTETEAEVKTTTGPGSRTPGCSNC
# [5] = target: T4, Cannabinoid receptor 2 (Rattus norvegicus) (UniProt Q9QZN9); assay: as §1; assay type: functional
# T4 sequence (whole entry): T3 sequence (Q9QZN9 whole entry)
# Rattus norvegicus [6] = assay: Analgesic activity in po dosed rat FCA model of inflammatory pain; assay type: functional
# [7] = Half life in rat; assay type: ADME, organism-based; conditions: in vivo
# [8] = Oral bioavailability in rat; assay type: ADME, organism-based; conditions: in vivo
# [9] = Drug concentration in blood of rat FCA model of inflammatory pain at 0.03 mg/kg, po after 1hr; assay type: ADME, organism-based; parameters: dose 0.03 mg/kg, route oral; conditions: read-out: Activity
# [10] = Drug concentration in blood of rat FCA model of inflammatory pain at 0.3 mg/kg, po after 1hr; assay type: ADME, organism-based; parameters: dose 0.3 mg/kg, route oral; conditions: read-out: Activity
# [11] = Drug concentration in blood of rat FCA model of inflammatory pain at 0.1 mg/kg, po after 1hr; assay type: ADME, organism-based; parameters: dose 0.1 mg/kg, route oral; conditions: read-out: Activity
# Rattus norvegicus [12] = assay: Reversal of hyperalgesia in rat at 0.3 mg/kg, po by weight bearing protocol; assay type: functional, organism-based; parameters: dose 0.3 mg/kg
# Rattus norvegicus [13] = assay: Reversal of FCA-induced hyperalgesia in rat administered thrice daily at 1 mg/kg, po; assay type: functional, organism-based; parameters: dose 1 mg/kg
# T1 sequence (P34972 whole entry): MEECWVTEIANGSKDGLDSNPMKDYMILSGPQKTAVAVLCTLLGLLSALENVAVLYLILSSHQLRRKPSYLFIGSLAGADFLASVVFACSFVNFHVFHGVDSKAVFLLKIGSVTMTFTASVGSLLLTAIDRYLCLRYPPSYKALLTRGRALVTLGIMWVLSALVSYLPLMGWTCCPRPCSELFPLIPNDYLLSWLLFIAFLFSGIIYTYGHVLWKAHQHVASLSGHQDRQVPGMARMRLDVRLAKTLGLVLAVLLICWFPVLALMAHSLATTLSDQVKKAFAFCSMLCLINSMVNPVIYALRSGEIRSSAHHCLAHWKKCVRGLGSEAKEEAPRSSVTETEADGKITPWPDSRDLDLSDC
SMILES,EC50 (Cannabinoid receptor 2 [1]),Efficacy (Cannabinoid receptor 2 [2]),IC50 (Cytochrome P450 1A2),IC50 (Cytochrome P450 2C19),IC50 (Cytochrome P450 2C9),IC50 (Cytochrome P450 2D6),IC50 (Cytochrome P450 3A4),also measured
O=C(NCC1CCOCC1)c1cnc(Nc2ccc(F)cc2F)nc1C(F)(F)F,0.63 µM,81%,,,,,,
O=C(NCC1CCOCC1)c1cnc(Nc2cccc(Cl)c2Cl)nc1C(F)(F)F,0.08 µM,90%,,,,,,
COc1ccccc1Nc1ncc(C(=O)NCc2ccccc2)c(C(F)(F)F)n1,0.158 µM,77%,,,,,,
O=C(NCC1CCOCC1)c1cnc(Nc2cccc(Cl)c2F)nc1C(F)(F)F,0.125 µM,90%,99 µM,> 100 µM,75 µM,> 100 µM,> 100 µM,
O=C(NCC1CCOCC1)c1cnc(Nc2ccc(Cl)c(Cl)c2)nc1C(F)(F)F,0.049 µM,83%,8 µM,> 25 µM,> 25 µM,> 25 µM,> 25 µM,Efficacy [3]: 10%
O=C(NCc1ccccc1)c1cnc(Nc2ccccc2Cl)nc1C(F)(F)F,0.25 µM,48%,,,,,,
O=C(NCC1CCOCC1)c1cnc(Nc2cc(Cl)ccc2Cl)nc1C(F)(F)F,0.1 µM,85%,,,,,,
COc1ccc(CNC(=O)c2cnc(Nc3cccc(Cl)c3)nc2C(F)(F)F)cc1,0.214 µM,66%,,,,,,
N#Cc1ccc(Nc2ncc(C(=O)NCc3ccccc3)c(C(F)(F)F)n2)cc1,0.4 µM,67%,,,,,,
O=C(NCC1CCOCC1)c1cnc(Nc2c(Cl)cccc2Cl)nc1C(F)(F)F,0.63 µM,86%,,,,,,
O=C(NCc1ccncc1)c1cnc(Nc2cccc(Cl)c2)nc1C(F)(F)F,0.06 µM,94%,0.4 µM,1.9 µM,0.9 µM,< 0.1 µM,< 0.1 µM,
O=C(OCc1ccco1)c1cnc(N2CCOCC2)nc1C(F)(F)F,0.63 µM,55%,,,,,,
O=C(NCC1CCCCC1)c1cnc(Nc2cccc(Cl)c2)nc1C(F)(F)F,0.08 µM,82%,> 100 µM,19 µM,9 µM,> 100 µM,82 µM,
O=C(NCc1ccco1)c1cnc(Nc2ccccc2)nc1C(F)(F)F,0.63 µM,62%,,,,,,CL (Liver microsomes): 4.6 mL/min/g
O=C(NCC1CCOCC1)c1cnc(Nc2cccc(F)c2F)nc1C(F)(F)F,0.4 µM,90%,,,,,,
O=C(NCC1CCOCC1)c1cnc(Nc2ccc(F)cc2Cl)nc1C(F)(F)F,0.4 µM,85%,,,,,,
CC(=O)Nc1cccc(Nc2ncc(C(=O)NCc3ccccc3)c(C(F)(F)F)n2)c1,> 25 µM,,,,,,,
O=C(NCC1CCCC1)c1cnc(Nc2cccc(Cl)c2)nc1C(F)(F)F,0.08 µM,83%,32 µM,14 µM,6 µM,> 100 µM,65 µM,
O=C(NCc1ccccc1)c1cnc(Nc2ccc(Cl)cc2)nc1C(F)(F)F,0.126 µM,49%,,,,,,
O=C(NCC1CCOCC1)c1cnc(Nc2ccc(Cl)cc2F)nc1C(F)(F)F,0.2 µM,80%,> 100 µM,> 100 µM,> 100 µM,> 100 µM,> 100 µM,
O=C(NCC1CCOCC1)c1cnc(Nc2ccc(Cl)cc2Cl)nc1C(F)(F)F [GW842166X],0.063 µM,95%,> 100 µM,> 100 µM,> 100 µM,> 100 µM,> 100 µM,EC50 (Cannabinoid receptor 2 [4]): 0.091 µM; Efficacy [5]: 100%; ED50 (Rattus norvegicus [6]): 0.1 mg/kg; half-life [7]: 3 h; bioavailability [8]: 58%; concentration at 1 h [9]: 30 nM; concentration at 1 h [10]: 370 nM; concentration at 1 h [11]: 130 nM; Activity (Rattus norvegicus [12]): Active; Activity (Rattus norvegicus [13]): Active
O=C(NCC1CCOCC1)c1cnc(Nc2cc(Cl)cc(Cl)c2)nc1C(F)(F)F,0.033 µM,85%,> 100 µM,14 µM,13 µM,27 µM,38 µM,
O=C(NCc1ccccc1)c1cnc(Nc2cccc(Cl)c2)nc1C(F)(F)F,0.245 µM,82%,,,,,,
